Measured values from patent US20100331338A1, “Glucokinase Activators” (Merck Patent GMBH, priority 2008, published 2010).

Biological target: T1, hGK (Homo sapiens, UniProt P35557)
T1 sequence (P35557 1-465): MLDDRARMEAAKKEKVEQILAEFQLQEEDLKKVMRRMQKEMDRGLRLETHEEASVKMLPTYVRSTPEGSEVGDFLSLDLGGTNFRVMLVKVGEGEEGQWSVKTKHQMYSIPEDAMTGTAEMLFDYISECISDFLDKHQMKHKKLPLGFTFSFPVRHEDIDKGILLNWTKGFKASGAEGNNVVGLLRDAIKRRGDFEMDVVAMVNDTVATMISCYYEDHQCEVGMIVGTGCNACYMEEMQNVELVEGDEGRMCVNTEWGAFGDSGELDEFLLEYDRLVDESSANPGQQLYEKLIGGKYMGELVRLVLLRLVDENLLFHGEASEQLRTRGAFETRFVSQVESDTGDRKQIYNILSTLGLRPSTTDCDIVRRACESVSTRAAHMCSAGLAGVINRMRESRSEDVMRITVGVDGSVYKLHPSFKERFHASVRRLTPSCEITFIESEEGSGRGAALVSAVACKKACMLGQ
Experiment: Glucokinase Activation Screening Assay (coupled enzyme assay with PK/LDH)
Assay type: biochemical
Details: 2 mM glucose; for hGK fold activation at 30 μM: fold activation at 30 μM compound
Protocol: Glucokinase Activation Screening Assay
GK activity (human or rat enzyme) is measured by a coupled enzyme assay using pyruvate kinase (PK) and lactate dehydrogenase (LDH) as coupling enzymes. GK activity is calculated from the decline in NADH monitored photometrically with a microtiter plate (MTP) reader at 340 nm.
For screening purposes, the GK assay is routinely run in a 384-MTP format, in a total volume of 33 μl/well. 10 μl of the ATP-regeneration solution (in HEPES-buffer*, pH 7.0, 6.73 U/ml pyruvate kinase, 6.8 U/ml lactate dehydrogenase) and 10 μl of the glucokinase-/glucose solution (15 μg/ml, 6.6 mM glucose in HEPES-buffer*, pH 7.0; the concentration of the glucose stock-solution was 660 mM in Millipore H2O) were mixed together with […] of a 10% DMSO solution (in HEPES-buffer*, pH 7.0) containing 3.3-fold the amounts of the compounds to achieve final compound concentrations in the range between 1 nM to 30 μM (sometimes 300 μM) in the assay solution (s. below). The solutions were mixed for 5 sec, and after a centrifugation at 243×g for 5 min, the solutions were preincubated for 25 min at room temperature.
The reaction was started by the addition of 10 μl of the NADH-/ATP-solution (4.29 mM NADH, 4.95 mM ATP, in HEPES-buffer*). The MTP was shaken for 5 sec., and then, the absorbance at 340 nm was monitored continuously in a MTP-reader (TECAN Spectro fluor plus) for the next 27 min (with a MTP-cycling time of 199 sec.). The final concentrations of the various components were as follows: 49.5 mM Hepes, pH 7.0, 1.49 mM PEP,1,3 mM NADH, 49.5 mM KCl, 4.96 mM MgCl2, 1.5 mM Mg-ATP, 1.98 mM DTT, 2.04 U/ml pyruvate kinase, 2.06 U/ml lactate-dehydrogenase, 0.91% DMSO, 0.15 μg/well glucokinase, and test compounds in the range between 1 nM and 300 μM.
The change in the optical density (ΔOD340 nm) in the presence of the compound was expressed relative to the ΔOD340 nm, ctrl of the control incubation (in the presence of 2 mM glucose and 0.91% DMSO), taking into account the optical density of the blank sample (incubation in the absence of 2 mM glucose). For the determination of the half maximal effective concentration (EC50), the %-Ctrl-values were plotted in a semi-logarithmic graph against the conc. of the compound of interest. The data points were fitted to a sigmoid curve function (f(x)=((%-Ctrlmax%-Ctrlmin)/(1−(EC50/x**^n(Hill)))+%-Ctrlmin)) by a non-linear regression analysis.
* Hepes-buffer (50 mM Hepes, pH 7.0, 5 mM MgCl2, 50 mM KCl, 1.5 mM PEP, 0.1% BSA). DTT was added to the Hepes-buffer from a 200× stock solution (in Millipore H2O) freshly each day. The final concentration of DTT in the Hepes-buffer is 2 mM.

SMILES	hGK fold activation at 30 μM	EC50
O=C(Nc1nccs1)c1ccsc1 [Example 2, Thiophene-3-carboxylic acid thiazol-2-ylamide]	1.3	
O=C(Nc1nccs1)c1cccs1 [Example 3, Thiophene-2-carboxylic acid thiazol-2-ylamide]	1.3	
Cc1csc(C(=O)Nc2nccs2)c1 [Example 4, 4-Methyl-thiophene-2-carboxylic acid thiazol-2-ylamide]	3.4	
CS(=O)(=O)c1cc(C(=O)Nc2nccs2)sc1Cl [Example 5, 5-Chloro-4-methanesulfonyl-thiophene-2-carboxylic acid thiazol-2-ylamide]	1.9	5.9 µM
O=C(Nc1nccs1)c1csc2ccccc12 [Example 6, Benzo[b]thiophene-3-carboxylic acid thiazol-2-ylamide]	1.2	
O=C(Nc1nccs1)c1csc2c1CCCC2 [Example 7, 4,5,6,7-Tetrahydro-benzo[b]thiophene-3-carboxylic acid thiazol-2-ylamide]	1.2	
CC1CCc2c(C(=O)Nc3nccs3)csc2C1 (stereo not drawn) [Example 8, 6-Methyl-4,5,6,7-tetrahydro-benzo[b]thiophene-3-carboxylic acid thiazol-2-ylamide]	1.6	
CCCc1cc(C(=O)Nc2nc(C)cs2)cs1 [Example 10, 5-Propyl-thiophene-3-carboxylic acid(4-methyl-thiazol-2-yl)-amide]	5.2	9.3 µM
CCCc1cc(C(=O)Nc2nc(CC(=O)OCC)cs2)cs1 [Example 11, {2-[(5-Propyl-thiophene-3-carbonyl)-amino]thiazol-4-yl}-acetic acid ethyl ester]	4.9	15 µM
CCCc1cc(C(=O)Nc2nc(C(=O)OCC)cs2)cs1 [Example 12, 2-[(5-Propyl-thiophene-3-carbonyl)-amino]-thiazole-4-carboxylic acid ethyl ester]	2.6	5 µM
CCCc1cc(C(=O)Nc2nc(C)c(C(=O)OCC)s2)cs1 [Example 13, 4-Methyl-2-[(5-propyl-thiophene-3-carbonyl)-amino]-thiazole-5-carboxylic acid ethyl ester]	1.5	
CCCc1cc(C(=O)Nc2ncc[nH]2)cs1 [Example 14, 5-Propyl-thiophene-3-carboxylic acid(1H-imidazol-2-yl)-amide]	2.1	
COCc1csc(C(=O)Nc2ccn(Cc3ccccn3)n2)c1 [Example 15, 4-Methoxymethyl-thiophene-2-carboxylic acid(1-pyridin-2-ylmethyl-1H-pyrazol-3-yl)-amide]	3	
Cc1csc(C(=O)Nc2cc(C)n(Cc3ccccn3)n2)c1 [Example 16, 4-Methyl-thiophene-2-carboxylic acid(5-methyl-1-pyridin-2-ylmethyl-1H-pyrazol-3-yl)-amide]	1.3	
COCc1csc(C(=O)Nc2cc(C)n(Cc3ccccn3)n2)c1 [Example 17, 4-Methoxymethyl-thiophene-2-carboxylic acid(5-methyl-1-pyridin-2-ylmethyl-1H-pyrazol-3-yl)-amide]	1.8	
CS(=O)(=O)c1csc(C(=O)Nc2nccs2)c1Cl [Example 18, 3-Chloro-4-methanesulfonyl-thiophene-2-carboxylic acid thiazol-2-ylamide]	1.2	
O=C(Nc1nccs1)c1cc(-c2ccc(Cl)cc2)cs1 [Example 19, 4-(4-Chloro-phenyl)-thiophene-2-carboxylic acid thiazol-2-ylamide]	1.5	
